From PubChem BioAssay AID248 (DTP/NCI, 2004)
Values joined by “and” are separate entries in the source; they are usually repeats but may differ in a detail not shown here. Identical values can stand only once. Inconclusive results and toxic doses are left out. Cut-off read from the data, not from the text of the source: active = T/C of 150% or more; inactive = T/C below 125%.

Tested on: L1210 leukemia ip in BDF1 mice, survival T/C
Experiment: NCI In Vivo Anticancer Drug Screen. Data for tumor model L1210 Leukemia (intraperitoneal) in B6D2F1 (BDF1) mice
Conditions: endpoint: mean survival time, higher = longer survival
Method in brief: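 Transplanted-tumor mice were given test agent; controls received vehicle only. Survival readings from the two groups were divided (treated over control).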

[1] = dose: 75.0 mg/kg/injection, schedule: Q01DX001 (ip), vehicle: saline
[2] = dose: 100.0 mg/kg/injection, schedule: Q04DX003 (ip), vehicle: Klucel (hydroxypropylcellulose) (HPC)
[3] = dose: 200.0 mg/kg/injection, schedule: Q04DX003 (ip), vehicle: Klucel (hydroxypropylcellulose) (HPC)
[4] = dose: 400.0 mg/kg/injection, schedule: Q04DX003 (ip), vehicle: Klucel (hydroxypropylcellulose) (HPC)
[5] = dose: 100.0 mg/kg/injection, schedule: Q01DX009 (ip), vehicle: Klucel (hydroxypropylcellulose) (HPC)
[6] = dose: 200.0 mg/kg/injection, schedule: Q01DX009 (ip), vehicle: Klucel (hydroxypropylcellulose) (HPC)
[7] = dose: 100.0 mg/kg/injection, schedule: Q01DX001 (ip), vehicle: carboxymethylcellulose (CMC)
[8] = dose: 200.0 mg/kg/injection, schedule: Q01DX001 (ip), vehicle: carboxymethylcellulose (CMC)
[9] = dose: 400.0 mg/kg/injection, schedule: Q01DX001 (ip), vehicle: carboxymethylcellulose (CMC)
[10] = dose: 100.0 mg/kg/injection, schedule: Q01DX001 (ip), vehicle: saline
[11] = dose: 400.0 mg/kg/injection, schedule: Q01DX001 (ip), vehicle: saline
[12] = dose: 50.0 mg/kg/injection, schedule: Q01DX001 (ip), vehicle: saline
[13] = dose: 200.0 mg/kg/injection, schedule: Q01DX001 (ip), vehicle: saline
[14] = dose: 100.0 mg/kg/injection, schedule: Q04DX003 (ip), vehicle: saline
[15] = dose: 200.0 mg/kg/injection, schedule: Q04DX003 (ip), vehicle: saline
[16] = dose: 400.0 mg/kg/injection, schedule: Q04DX003 (ip), vehicle: saline

Measured: T/C

Cc1cc(C)c(N)c(C)n1
inactive: dose: 12.5 mg/kg/injection, schedule: Q04DX003 (ip), vehicle: Klucel (hydroxypropylcellulose) (HPC) 95 % of control | dose: 25.0 mg/kg/injection, schedule: Q04DX003 (ip), vehicle: Klucel (hydroxypropylcellulose) (HPC) 97 % of control | dose: 50.0 mg/kg/injection, schedule: Q04DX003 (ip), vehicle: Klucel (hydroxypropylcellulose) (HPC) 93 % of control

COc1ccc2c(c1O)C13C=C(C)C(=O)CC1C(C2)N(C)CC3 (centres undefined)
inactive: [1] 106 % of control

O=[N+]([O-])c1ccc(C2=Cc3cccn3-c3ccccc3S2(=O)=O)cc1
inactive: [2] 96 % of control | [3] 95 % of control | [4] 98 % of control

S=C(Cc1ccc2ccccc2c1)N1CCN(c2ccccc2)CC1
inactive: dose: 100.0 mg/kg/injection, schedule: Q01DX001 (ip), vehicle: olive oil, sesame oil, peanut oil 92 % of control | dose: 100.0 mg/kg/injection, schedule: Q04DX003 (sc), vehicle: olive oil, sesame oil, peanut oil 100 % of control | dose: 200.0 mg/kg/injection, schedule: Q01DX001 (ip), vehicle: olive oil, sesame oil, peanut oil 97 % of control | dose: 200.0 mg/kg/injection, schedule: Q04DX003 (sc), vehicle: olive oil, sesame oil, peanut oil 111 % of control | dose: 400.0 mg/kg/injection, schedule: Q01DX001 (ip), vehicle: olive oil, sesame oil, peanut oil 97 % of control | dose: 400.0 mg/kg/injection, schedule: Q04DX003 (sc), vehicle: olive oil, sesame oil, peanut oil 107 % of control

Cc1cc(OC(=O)Nc2cccc(Cl)c2)ccc1[N+](=O)[O-]
inactive: [5] 101 % of control | [2] 90 % of control | [6] 101 % of control | [3] 95 % of control | [4] 90 % of control

CC(C)c1nc(CO)c(CO)n1Cc1ccccc1
inactive: [7] 106 % of control | dose: 100.0 mg/kg/injection, schedule: Q01DX009 (ip), vehicle: carboxymethylcellulose (CMC) 93 % of control and 109 % of control | dose: 100.0 mg/kg/injection, schedule: Q04DX002 (ip), vehicle: Klucel (hydroxypropylcellulose) (HPC) 112 % of control | dose: 100.0 mg/kg/injection, schedule: Q04DX002 (ip), vehicle: carboxymethylcellulose (CMC) 93 % of control and 111 % of control | [8] 108 % of control | dose: 200.0 mg/kg/injection, schedule: Q01DX009 (ip), vehicle: carboxymethylcellulose (CMC) 106 % of control and 91 % of control | dose: 200.0 mg/kg/injection, schedule: Q04DX002 (ip), vehicle: Klucel (hydroxypropylcellulose) (HPC) 102 % of control | dose: 200.0 mg/kg/injection, schedule: Q04DX002 (ip), vehicle: carboxymethylcellulose (CMC) 105 % of control and 88 % of control | [9] 108 % of control | dose: 400.0 mg/kg/injection, schedule: Q01DX009 (ip), vehicle: carboxymethylcellulose (CMC) 106 % of control and 91 % of control | dose: 400.0 mg/kg/injection, schedule: Q04DX002 (ip), vehicle: Klucel (hydroxypropylcellulose) (HPC) 102 % of control | dose: 400.0 mg/kg/injection, schedule: Q04DX002 (ip), vehicle: carboxymethylcellulose (CMC) 97 % of control and 90 % of control

CCC1(C(C)Br)OC2=C(CC(C#N)(C#N)C(C#N)(C#N)C2)O1 (centres undefined)
inactive: dose: 25.0 mg/kg/injection, schedule: Q01DX009 (ip), vehicle: other 100 % of control | dose: 50.0 mg/kg/injection, schedule: Q01DX009 (ip), vehicle: saline 87 % of control | [1] 100 % of control | dose: 75.0 mg/kg/injection, schedule: Q01DX009 (ip), vehicle: other 87 % of control

O=[N+]([O-])c1ccccc1N=Nc1c(O)[nH]c2cccc(C(F)(F)F)c12
inactive: dose: 100.0 mg/kg/injection, schedule: Q01DX001 (ip), vehicle: acetone 97 % of control | [10] 103 % of control | dose: 200.0 mg/kg/injection, schedule: Q01DX001 (ip), vehicle: acetone 97 % of control | dose: 400.0 mg/kg/injection, schedule: Q01DX001 (ip), vehicle: acetone 97 % of control | [11] 87 % of control

Nc1nc(Cl)c(Br)c(=O)[nH]1
inactive: dose: 25.0 mg/kg/injection, schedule: Q01DX Z (ip), vehicle: methylcellulose (MC) 98 % of control | dose: 50.0 mg/kg/injection, schedule: Q01DX Z (ip), vehicle: methylcellulose (MC) 89 % of control

Cc1cc(C)c(N2C(=O)C=CC2=O)c(C)c1
inactive: dose: 0.39 mg/kg/injection, schedule: Q01DX009 (ip), vehicle: saline with Tween-80 94 % of control | dose: 0.78 mg/kg/injection, schedule: Q01DX009 (ip), vehicle: saline with Tween-80 94 % of control | dose: 1.56 mg/kg/injection, schedule: Q01DX009 (ip), vehicle: saline with Tween-80 95 % of control and 108 % of control | dose: 6.25 mg/kg/injection, schedule: Q01DX009 (ip), vehicle: saline with Tween-80 88 % of control

CC(=O)Nc1ccc(OC(=O)Oc2ccc(NC(C)=O)cc2)cc1
inactive: [12] 101 % of control | [10] 97 % of control | [13] 95 % of control | [11] 95 % of control

O=C1OC(c2ccccc2)(c2ccccc2)c2ccccc21
inactive: [5] 93 % of control | [2] 107 % of control | [6] 101 % of control | [3] 102 % of control | dose: 400.0 mg/kg/injection, schedule: Q01DX009 (ip), vehicle: Klucel (hydroxypropylcellulose) (HPC) 88 % of control | [4] 100 % of control

Cc1ccc(C[As+](c2ccccc2)(c2ccccc2)c2ccccc2)cc1
inactive: dose: 10.0 mg/kg/injection, schedule: Q01DX001 (ip), vehicle: saline 97 % of control | dose: 20.0 mg/kg/injection, schedule: Q01DX001 (ip), vehicle: saline 96 % of control | dose: 40.0 mg/kg/injection, schedule: Q01DX001 (ip), vehicle: saline 96 % of control

O=Cc1c[nH]c2nccnc12
inactive: dose: 100.0 mg/kg/injection, schedule: Q01DX009 (ip), vehicle: saline 94 % of control | [14] 96 % of control | dose: 200.0 mg/kg/injection, schedule: Q01DX009 (ip), vehicle: saline 97 % of control | [15] 93 % of control | dose: 400.0 mg/kg/injection, schedule: Q01DX009 (ip), vehicle: saline 100 % of control | [16] 93 % of control

CCN(CC)CCOC(=O)c1[nH]cnc1/N=N/N(C)C1CCCCC1
inactive: dose: 100.0 mg/kg/injection, schedule: Q01DX001 (ip), vehicle: other 104 % of control | dose: 200.0 mg/kg/injection, schedule: Q01DX001 (ip), vehicle: other 93 % of control

CCN(CC)CCNc1ccc(N=Nc2ccc(SC)cc2)c2ccccc12
inactive: dose: 6.25 mg/kg/injection, schedule: Q01DX015 (ip), vehicle: carboxymethylcellulose (CMC) 91 % of control | dose: 12.5 mg/kg/injection, schedule: Q01DX015 (ip), vehicle: carboxymethylcellulose (CMC) 93 % of control | dose: 25.0 mg/kg/injection, schedule: Q01DX015 (ip), vehicle: carboxymethylcellulose (CMC) 86 % of control | dose: 50.0 mg/kg/injection, schedule: Q01DX009 (ip), vehicle: saline with Tween-80 94 % of control | dose: 50.0 mg/kg/injection, schedule: Q01DX015 (ip), vehicle: carboxymethylcellulose (CMC) 87 % of control | dose: 50.0 mg/kg/injection, schedule: Q04DX003 (ip), vehicle: saline 96 % of control | dose: 100.0 mg/kg/injection, schedule: Q01DX009 (ip), vehicle: saline with Tween-80 103 % of control | [14] 89 % of control | [15] 88 % of control

C/C(=C(/CCO)SCCC(=O)c1ccccc1)N(C=O)Cc1cnc(C)nc1N
inactive: [14] 101 % of control | [15] 93 % of control | [16] 93 % of control

CC(=O)N1CCc2c(O)cccc2C1
inactive: [14] 93 % of control | [15] 93 % of control | [16] 102 % of control

C(=NCc1ccccc1)C1(c2ccccc2)OC1c1ccccc1 (centres undefined)
inactive: [2] 91 % of control | [3] 87 % of control | [4] 88 % of control

CC(=O)C(O)COP(=O)(O)O (centres undefined)
inactive: [12] 96 % of control | [10] 100 % of control | [13] 102 % of control | [11] 100 % of control

COc1cc([N+](=O)[O-])c(C)c(Br)c1N
inactive: [7] 100 % of control | [8] 100 % of control | [9] 96 % of control

CCOCCC(=O)NCc1ccccc1
inactive: dose: 100.0 mg/kg/injection, schedule: Q01DX001 (ip), vehicle: saline with Tween-80 100 % of control | dose: 200.0 mg/kg/injection, schedule: Q01DX001 (ip), vehicle: saline with Tween-80 104 % of control | dose: 400.0 mg/kg/injection, schedule: Q01DX001 (ip), vehicle: saline with Tween-80 106 % of control
